Reference: ChEMBL document CHEMBL1201862, “PubChem BioAssay data set” (2004)
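Test compounds were applied to cells in 96-well plates for 48 hours at 5 doses. The concentration for 50% growth inhibition is given as GI50.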 Calls of active or inactive are those of the source. Cut-off read from the data, not from the text of the source: active = GI50 up to about 1.1 µM and inactive = higher.

Experiments:
Assay in all cases: growth of human tumour cells (NCI), 48 h
[1] = tested on: Malme-3M
[2] = tested on: OVCAR-8
[3] = tested on: UACC-62
[4] = tested on: K562
[5] = tested on: SF-295
[6] = tested on: NCI-H23
[7] = tested on: HOP-62
[8] = tested on: COLO 205
[9] = tested on: 786-0
[10] = tested on: U-251
[11] = tested on: LOX IMVI
[12] = tested on: SK-OV-3
[13] = tested on: HCT-15
[14] = tested on: TK-10
[15] = tested on: RXF 393
[16] = tested on: SN12C
[17] = tested on: MOLT-4

SMILES | GI50 [1] | GI50 [2] | GI50 [3] | GI50 [4] | GI50 [5] | GI50 [6] | GI50 [7] | GI50 [8] | GI50 [9] | GI50 [10] | GI50 [11] | GI50 [12] | GI50 [13] | GI50 [14] | GI50 [15] | GI50 [16] | GI50 [17]
Cc1cn(C2CC(CCCO)C(CO)O2)c(=O)[nH]c1=O (configuration not stated) | > 100 µM (inactive) | > 100 µM (inactive) | > 100 µM (inactive) | > 100 µM (inactive) | > 100 µM (inactive) | > 100 µM (inactive) | > 100 µM (inactive) | > 100 µM (inactive) | > 100 µM (inactive) | > 100 µM (inactive) | > 100 µM (inactive) | > 100 µM (inactive) | > 100 µM | > 100 µM (inactive) | > 100 µM (inactive) | > 100 µM (inactive) | –
CC(C)C(CCOS(=O)(=O)O)CCC(C)[C@H]1[C@@H](O)C(O)C2[C@]3(O)C[C@@H](O)C4(O)C[C@@H](O)CC[C@]4(C)C3CC[C@@]21C (some centres not stated) | > 100 µM (inactive) | > 100 µM (inactive) | > 100 µM (inactive) | > 100 µM (inactive) | > 100 µM (inactive) | > 100 µM (inactive) | > 100 µM (inactive) | > 100 µM (inactive) | > 100 µM (inactive) | > 100 µM (inactive) | > 100 µM (inactive) | > 100 µM (inactive) | > 100 µM | > 100 µM (inactive) | > 100 µM (inactive) | > 100 µM (inactive) | –
COc1ccc(CNc2cnc3cc(N)ccc3n2)cc1OC | > 100 µM (inactive) | > 100 µM (inactive) | – | > 100 µM (inactive) | > 100 µM (inactive) | – | > 100 µM (inactive) | > 100 µM (inactive) | > 100 µM (inactive) | – | > 100 µM (inactive) | – | > 100 µM | > 100 µM (inactive) | – | > 100 µM (inactive) | > 100 µM (inactive)
FC(F)(F)c1ccc2nc(NCc3ccccc3)c(-c3ccccc3)nc2c1 | 25.4 µM (inactive) | 86.3 µM (inactive) | 39 µM (inactive) | – | 36 µM (inactive) | 53.7 µM (inactive) | 52.1 µM (inactive) | 37.2 µM (inactive) | 20.3 µM (inactive) | 21 µM (inactive) | 26.3 µM (inactive) | 38.4 µM (inactive) | 25.6 µM | 29.6 µM (inactive) | 20.4 µM (inactive) | 36.6 µM (inactive) | 24.7 µM (inactive)
COc1cc2c3c(c1OC)C(=O)C=C3N(S(=O)(=O)c1ccc(C)cc1)CC2 | > 100 µM (inactive) | > 100 µM (inactive) | > 100 µM (inactive) | > 100 µM (inactive) | 77.8 µM (inactive) | > 100 µM (inactive) | 64.3 µM (inactive) | > 100 µM (inactive) | 21.3 µM (inactive) | 84.5 µM (inactive) | > 100 µM (inactive) | > 100 µM (inactive) | > 100 µM | > 100 µM (inactive) | – | > 100 µM (inactive) | > 100 µM (inactive)
O=C(O)/C=C/n1c2ccccc2c(=O)c2ccccc21 | > 100 µM (inactive) | > 100 µM (inactive) | > 100 µM (inactive) | > 100 µM (inactive) | > 100 µM (inactive) | > 100 µM (inactive) | > 100 µM (inactive) | > 100 µM (inactive) | > 100 µM (inactive) | > 100 µM (inactive) | > 100 µM (inactive) | – | > 100 µM | – | > 100 µM (inactive) | > 100 µM (inactive) | > 100 µM (inactive)
CCOC(=O)C1C(=O)C(=O)N2CCc3c([nH]c4ccccc34)C12 (configuration not stated) | > 100 µM (inactive) | > 100 µM (inactive) | > 100 µM (inactive) | > 100 µM (inactive) | > 100 µM (inactive) | > 100 µM (inactive) | > 100 µM (inactive) | > 100 µM (inactive) | > 100 µM (inactive) | > 100 µM (inactive) | – | > 100 µM (inactive) | > 100 µM | > 100 µM (inactive) | > 100 µM (inactive) | > 100 µM (inactive) | > 100 µM (inactive)
Cc1ccc(S(=O)(=O)ON/N=C2/C3OC3[C@@H]3CCCC[C@H]23)cc1 (some centres not stated) | > 100 µM (inactive) | 0.507 µM (active) | > 100 µM (inactive) | > 100 µM (inactive) | 1.19 µM (inactive) | > 100 µM (inactive) | > 100 µM (inactive) | > 100 µM (inactive) | > 100 µM (inactive) | > 100 µM (inactive) | – | – | > 100 µM | > 100 µM (inactive) | 39.1 µM (inactive) | > 100 µM (inactive) | > 100 µM (inactive)
Nc1ncnc2c1ncn2C1OC(CSC(F)F)C(O)C1O (configuration not stated) | > 100 µM (inactive) | > 100 µM (inactive) | > 100 µM (inactive) | > 100 µM (inactive) | > 100 µM (inactive) | > 100 µM (inactive) | > 100 µM (inactive) | > 100 µM (inactive) | > 100 µM (inactive) | > 100 µM (inactive) | > 100 µM (inactive) | > 100 µM (inactive) | > 100 µM | > 100 µM (inactive) | – | > 100 µM (inactive) | > 100 µM (inactive)
OC1CC(O)O[C@H](c2ccccc2)C1 (some centres not stated) | > 100 µM (inactive) | 85.3 µM (inactive) | > 100 µM (inactive) | > 100 µM (inactive) | > 100 µM (inactive) | > 100 µM (inactive) | > 100 µM (inactive) | > 100 µM (inactive) | > 100 µM (inactive) | – | > 100 µM (inactive) | – | > 100 µM | > 100 µM (inactive) | > 100 µM (inactive) | > 100 µM (inactive) | > 100 µM (inactive)
C#CCSc1nc(N)c2ncn(C3OC(COP(=O)(O)O)C(O)C3O)c2n1 (configuration not stated) | > 239 µM (inactive) | > 239 µM (inactive) | > 239 µM (inactive) | > 239 µM (inactive) | > 239 µM (inactive) | > 239 µM (inactive) | > 239 µM (inactive) | > 239 µM (inactive) | > 239 µM (inactive) | – | > 239 µM (inactive) | > 239 µM (inactive) | > 239 µM | > 239 µM (inactive) | – | > 239 µM (inactive) | > 239 µM (inactive)
NC(CCC(=O)NC(CSC(=O)N(O)c1ccccc1)C(=O)NCC(=O)O)C(=O)O (configuration not stated) | > 1000 µM (inactive) | > 1000 µM (inactive) | > 1000 µM (inactive) | > 1000 µM (inactive) | > 1000 µM (inactive) | > 1000 µM (inactive) | > 1000 µM (inactive) | > 1000 µM (inactive) | > 1000 µM (inactive) | > 1000 µM (inactive) | > 1000 µM (inactive) | > 1000 µM (inactive) | > 1000 µM | > 1000 µM (inactive) | > 1000 µM (inactive) | > 1000 µM (inactive) | –
C[C@H]1[C@H](C)CC[C@]2(C(=O)O)CCC3(COC(=O)/C=C/c4ccc(O)cc4)C(=CCC4[C@@]5(C)CC[C@H](O)C(C)(C)C5CC[C@]43C)[C@H]12 (some centres not stated) | 19.3 µM (inactive) | 4.51 µM (inactive) | 9.4 µM (inactive) | 2.86 µM (inactive) | 3.72 µM (inactive) | – | 7.82 µM (inactive) | 3.99 µM (inactive) | 5.16 µM (inactive) | 2.33 µM (inactive) | 5.24 µM (inactive) | 1.63 µM (inactive) | 4.62 µM | 10.5 µM (inactive) | 10.9 µM (inactive) | 5.68 µM (inactive) | 3.52 µM (inactive)
Cc1c2cc[n+](C)cc2c(C)c2c1[nH]c1ccc(Oc3ccccc3)cc12 | 1.76 µM (inactive) | 0.553 µM (active) | 1.51 µM (inactive) | 0.383 µM (active) | 0.311 µM (active) | 0.515 µM (active) | 0.578 µM (active) | 1.1 µM (active) | 0.504 µM (active) | 0.308 µM (active) | 2.09 µM (inactive) | 1.39 µM (inactive) | 3.05 µM | – | – | 0.381 µM (active) | 2.21 µM (inactive)
N=c1oc2c(O)c(O)ccc2cc1C(N)=O | 84.3 µM (inactive) | 24.5 µM (inactive) | 35.1 µM (inactive) | 17.7 µM (inactive) | 33.6 µM (inactive) | > 100 µM (inactive) | > 100 µM (inactive) | 41.6 µM (inactive) | 12 µM (inactive) | 90.6 µM (inactive) | – | > 100 µM (inactive) | > 100 µM | > 100 µM (inactive) | 50.2 µM (inactive) | > 100 µM (inactive) | 34 µM (inactive)
CC(=O)OC1C[C@H]2C(OC(=O)c3ccccc3)C3C4(OC(C)=O)COC4C[C@H](OC(C)=O)[C@@]3(C)C(OC(C)=O)[C@H](OC(C)=O)C(=C1C)C2(C)C (some centres not stated) | 71.8 µM (inactive) | 41.2 µM (inactive) | 77.1 µM (inactive) | 23.8 µM (inactive) | 33.5 µM (inactive) | 52.8 µM (inactive) | 40 µM (inactive) | 42.7 µM (inactive) | 35.9 µM (inactive) | – | 40.9 µM (inactive) | 34.1 µM (inactive) | 47 µM | 25.7 µM (inactive) | 16.2 µM (inactive) | 51.2 µM (inactive) | 20.1 µM (inactive)
CC(C)N(C(=O)C12C3C4C1C1C4(C#N)C3C12C(=O)O)C(C)C (configuration not stated) | > 100 µM (inactive) | > 86.9 µM (inactive) | > 100 µM (inactive) | > 69.8 µM (inactive) | > 100 µM (inactive) | > 100 µM (inactive) | > 100 µM (inactive) | > 100 µM (inactive) | > 100 µM (inactive) | > 100 µM (inactive) | > 93.8 µM (inactive) | > 100 µM (inactive) | > 44.7 µM | > 100 µM (inactive) | – | > 100 µM (inactive) | > 100 µM (inactive)
Cc1c(C(=O)c2ccccc2C(=O)O)c2ccccc2n1C | > 100 µM (inactive) | > 100 µM (inactive) | > 100 µM (inactive) | > 100 µM (inactive) | > 100 µM (inactive) | > 100 µM (inactive) | > 100 µM (inactive) | – | > 100 µM (inactive) | > 100 µM (inactive) | – | > 100 µM (inactive) | > 100 µM | > 100 µM (inactive) | > 100 µM (inactive) | – | > 100 µM (inactive)
